Test results as given in EP4745135A1 (Gluetacs Therapeutics (Shanghai) Co., Ltd., priority 2023, dated 2025).
pIC50: −log10 of the molar value.

Target: T1, human Cereblon WT GST-tagged protein (Homo sapiens, UniProt Q96SW2)
T1 construct: purchased CISBIO 64BDCRBNPEH
Assay: CRBN-binding affinity, HTRF (CEREBLON BINDING kit)
Settings: for pIC50: CRBN binding, HTRF, 3 hours at room temperature, read-out: HTRF IC50; for inhibition at 0.5 µM: read-out: Inhibition Rate at 0.5 µM (%); for inhibition at 2 µM: read-out: Inhibition Rate at 2 µM (%)
Procedure: The CEREBLON BINDING kits (specification: 10,000 tests; product number: Catalog # 64BDCRBNPEH; CISBIO company) was used to determine the CRBN binding ability of the compounds to be tested through a HTRF method (homogeneous time-resolved fluorescence). The specific methods are as follows: • 1. […] Specifically, diluent #9 (1X) solution was used as the diluent, and multiple concentration gradients were set. […] Then, 2.5 µL of human Cereblon WT GST-tagged protein solution was added to each well. Finally, 5 µL of the thoroughly mixed Thalidomide-Re reagent and GST Eu antibody working solution were added to each of the aforementioned wells. […] The blank control wells were sequentially added with 2.5 µL of diluent #9 (1X) solution, 2.5 µL of PROTAC binding buffer, and 5 µL of thoroughly mixed Thalidomide-Re reagent and GST Eu antibody working solution. • 4.

T1 sequence (Q96SW2 whole entry): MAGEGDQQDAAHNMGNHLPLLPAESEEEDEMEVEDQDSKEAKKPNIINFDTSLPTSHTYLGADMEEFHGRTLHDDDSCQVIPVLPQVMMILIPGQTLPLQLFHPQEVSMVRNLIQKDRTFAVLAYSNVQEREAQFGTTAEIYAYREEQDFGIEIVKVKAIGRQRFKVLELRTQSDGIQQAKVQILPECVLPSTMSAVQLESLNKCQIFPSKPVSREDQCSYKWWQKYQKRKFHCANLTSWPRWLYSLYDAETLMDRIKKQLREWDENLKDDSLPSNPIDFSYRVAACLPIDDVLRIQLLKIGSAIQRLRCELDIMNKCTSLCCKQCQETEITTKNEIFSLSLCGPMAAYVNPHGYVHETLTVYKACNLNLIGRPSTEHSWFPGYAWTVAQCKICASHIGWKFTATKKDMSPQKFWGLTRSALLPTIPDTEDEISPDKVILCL

Row | Compound | pIC50 | inhibition at 0.5 µM [%] | inhibition at 2 µM [%]
1 | O=C1CCC(N2Cc3cc(CN4CCN(c5nsc6ccccc56)CC4)ccc3C2=S)C(=O)N1 (centres unmarked) [GT-05091, 3-(5-((4-(benzo[d]isothiazol-3-yl)piperazin-1-yl)methyl)-1-thioxoisoindolin-2-yl)piperidine-2,6-dione] | > 7.00 | – | –
2 | O=C1CCC(N2Cc3cc(CN4CCC(c5ncnc6sc(-c7ccccc7)cc56)CC4)ccc3C2=S)C(=O)N1 (centres unmarked) [GT-09306, 3-(5-((4-(6-phenylthieno[2,3-d]pyrimidin-4-yl)piperidin-1-yl)methyl)-1-thioxoisoindolin-2-yl)piperidine-2,6-dione] | – | 40 to 53 | 80 to 100
3 | O=C1CCC(N2Cc3cc(CN4CCN(c5ccc(Cl)nn5)CC4)ccc3C2=S)C(=O)N1 (centres unmarked) [GT-09251, 3-(5-((4-(6-chloropyridazin-3-yl)piperazin-1-yl)methyl)-1-thioxoisoindolin-2-yl)piperidine-2,6-dione] | – | 60 to 80 | 80 to 100
4 | O=C1CCC(N2Cc3c(CN4CC=C(c5cccs5)CC4)cccc3C2=S)C(=O)N1 (centres unmarked) [GT-08299, 3-(4-((4-(thiophen-2-yl)-3,6-dihydropyridin-1 (2H)-yl)methyl)-1-thioxoisoindolin-2-yl)piperidine-2,6-dione] | – | 53 to 60 | 60 to 80
5 | O=C1CCC(N2Cc3c(CN4CC5CCC4CN5C(c4ccccc4)c4ccccc4)cccc3C2=S)C(=O)N1 (centres unmarked) [GT-08233, 3-(4-((5-benzhydryl-2,5-diazabicyclo[2.2.2]octan-2-yl)methyl)-1-thioxoisoindolin-2-yl)piperidine-2,6-dione] | – | 53 to 60 | 80 to 100
6 | O=C1CCC(N2Cc3cc(CN4CCC(c5ccon5)CC4)ccc3C2=S)C(=O)N1 (centres unmarked) [GT-09256, 3-(5-((4-(isoxazol-3-yl)piperidin-1-yl)methyl)-1-thioxoisoindolin-2-yl)piperidine-2,6-dione] | – | 60 to 80 | 80 to 100
7 | O=C1CCC(N2Cc3cc(CN4CCN(c5ncnc6sc(Br)cc56)CC4)ccc3C2=S)C(=O)N1 (centres unmarked) [GT-09295, 3-(5-((4-(6-bromothieno[2,3-d]pyrimidin-4-yl)piperazin-1-yl)methyl)-1-thioxoisoindolin-2-yl)piperidine-2,6-dione] | – | 80 to 100 | 80 to 100
8 | CC1(C)CC(c2ccc(Cl)cc2)=C(CN2CCN(Cc3cccc4c3CN(C3CCC(=O)NC3=O)C4=S)CC2)CO1 (centres unmarked) [GT-08296, 3-(4-((4-((4-(4-chlorophenyl)-6,6-dimethyl-5,6-dihydro-2H-pyran-3-yl)methyl)piperazin-1-yl)methyl)-1-thioxoisoindolin-2-yl)piperidine-2,6-dione] | – | 40 to 53 | 60 to 80
9 | O=C1CCC(N2Cc3c(CN4CCC(C5CCOc6cc(F)ccc65)CC4)cccc3C2=S)C(=O)N1 (centres unmarked) [GT-08854, 3-(4-((4-(7-fluorochroman-4-yl)piperidin-1-yl)methyl)-1-thioxoisoindolin-2-yl)piperidine-2,6-dione] | – | 40 to 53 | 80 to 100
10 | O=C1CCC(N2Cc3cc(CN4CCN(c5nc6c(c(N7CCOCC7)n5)SCC6)CC4)ccc3C2=S)C(=O)N1 (centres unmarked) [GT-09330, 3-(5-((4-(4-morpholino-6,7-dihydrothieno[3,2-d]pyrimidin-2-yl)piperazin-1-yl)methyl)-1-thioxoisoindolin-2-yl)piperidine-2,6-dione] | – | 60 to 80 | 80 to 100
11 | O=C1CCC(N2Cc3cc(CN4CCC(c5cccc6cnccc56)CC4)ccc3C2=S)C(=O)N1 (centres unmarked) [GT-09277, 3-(5-((4-(isoquinolin-5-yl)piperidin-1-yl)methyl)-1-thioxoisoindolin-2-yl)piperidine-2,6-dione] | – | 40 to 53 | 80 to 100
12 | O=C1CCC(N2Cc3cc(CN4CCN(c5ncc6ccsc6n5)CC4)ccc3C2=S)C(=O)N1 (centres unmarked) [GT-09303, 3-(5-((4-(thieno[2,3-d]pyrimidin-2-yl)piperazin-1-yl)methyl)-1-thioxoisoindolin-2-yl)piperidine-2,6-dione] | – | 60 to 80 | 80 to 100
13 | O=C1CCC(N2Cc3cc(CN4CCN(c5noc6cc(F)ccc56)CC4)ccc3C2=S)C(=O)N1 (centres unmarked) [GT-09257] | – | 60 to 80 | 80 to 100
14 | O=C1CCC(N2Cc3c(CN4CCN(c5cccc(Br)c5)CC4)cccc3C2=S)C(=O)N1 (centres unmarked) [GT-08261, 3-(4-((4-(3-bromophenyl)piperazin-1-yl)methyl)-1-thioxoisoindolin-2-yl)piperidine-2,6-dione] | – | 30 to 40 | 60 to 80
15 | O=C1CCC(N2Cc3cc(CN4CCc5sccc5C4)ccc3C2=S)C(=O)N1 (centres unmarked) [GT-05093, 3-(5-((6,7-dihydrothieno[3,2-c]pyridin-5(4H)-yl)methyl)-1-thioxoisoindolin-2-yl)piperidine-2,6-dione] | > 7.00 | – | –
16 | O=C1CCC(N2Cc3cc(CN4CCN(c5noc6ccncc56)CC4)ccc3C2=S)C(=O)N1 (centres unmarked) [GT-09258, 3-(5-((4-(isoxazolo[4,5-c]pyridin-3-yl)piperazin-1-yl)methyl)-1-thioxoisoindolin-2-yl)piperidine-2,6-dione] | – | 60 to 80 | 80 to 100
17 | O=C1CCC(N2Cc3c(CN4CCN(c5nc(N6CCNCC6)c6sccc6n5)CC4)cccc3C2=S)C(=O)N1 (centres unmarked) [GT-09036, 3-(4-((4-(4-(piperazin-1-yl)thieno[3,2-d]pyrimidin-2-yl)piperazin-1-yl)methyl)-1-thioxoisoindolin-2-yl)piperidine-2,6-dione] | – | 60 to 80 | 80 to 100
18 | O=C1CCC(N2Cc3cc(CN4CCC(c5ncnc6sccc56)CC4)ccc3C2=S)C(=O)N1 (centres unmarked) [GT-09304, 3-(5-((4-(thieno[2,3-d]pyrimidin-4-yl)piperidin-1-yl)methyl)-1-thioxoisoindolin-2-yl)piperidine-2,6-dione] | – | 60 to 80 | 80 to 100
19 | CC(C)c1cc2c(N3CCN(Cc4ccc5c(c4)CN(C4CCC(=O)NC4=O)C5=S)CC3)ncnc2s1 (centres unmarked) [GT-09284, 3-(5-((4-(6-isopropylthieno[2,3-d]pyrimidin-4-yl)piperazin-1-yl)methyl)-1-thioxoisoindolin-2-yl)piperidine-2,6-dione] | – | 40 to 53 | 80 to 100
20 | O=C1CCC(N2Cc3c(CN4CCC(c5noc6ccccc56)CC4)cccc3C2=S)C(=O)N1 (centres unmarked) [GT-08816, 3-(4-((4-(benzo[d]isoxazol-3-yl)piperidin-1-yl)methyl)-1-thioxoisoindolin-2-yl)piperidine-2,6-dione] | – | 60 to 80 | 80 to 100
21 | Cc1nc(C2=CCN(Cc3ccc4c(c3)CN(C3CCC(=O)NC3=O)C4=S)CC2)c2c3c(sc2n1)CCCC3 (centres unmarked) [GT-09323, 3-(5-((4-(2-methyl-5,6,7,8-tetrahydrobenzo[4,5]thieno[2,3-d]pyrimidin-4-yl)-3,6-dihydropyridin-1(2H)-yl)methyl)-1-thioxoisoindolin-2-yl)piperidine-2,6-dione] | – | 40 to 53 | 80 to 100
22 | Cc1cc2c(C3CCN(Cc4ccc5c(c4)CN(C4CCC(=O)NC4=O)C5=S)CC3)ncnc2s1 (centres unmarked) [GT-09305, 3-(5-((4-(6-methylthieno[2,3-d]pyrimidin-4-yl)piperidin-1-yl)methyl)-1-thioxoisoindolin-2-yl)piperidine-2,6-dione] | – | 60 to 80 | 80 to 100
23 | O=C1CCC(N2Cc3cc(CN4CCN(C(=O)C5=C(c6ccc(F)cc6)CCCC5)CC4)ccc3C2=S)C(=O)N1 (centres unmarked) [GT-08165, 3-(5-((4-(4'-fluoro-3,4,5,6-tetrahydro-[1,1'-biphenyl]-2-carbonyl)piperazin-1-yl)methyl)-1-thioxoisoindolin-2-yl)piperidine-2,6-dione] | – | 60 to 80 | 80 to 100
24 | O=C1CCC(N2Cc3cc(CN4CCC(N5C(=O)COc6cc(F)ccc65)CC4)ccc3C2=S)C(=O)N1 (centres unmarked) [GT-09273, 3-(5-((4-(7-fluoro-3-oxo-2,3-dihydro-4H-benzo[b][1,4]oxazin-4-yl)piperidin-1-yl)methyl)-1-thioxoisoindolin-2-yl)piperidine-2,6-dione] | – | 60 to 80 | 80 to 100
25 | O=C1CCC(N2Cc3cc(CN4CCn5c(nnc5C(F)(F)F)C4)ccc3C2=S)C(=O)N1 (centres unmarked) [GT-05090, 3-(1-thioxo-5-((3-(trifluoromethyl)-5,6-dihydro-[1,2,4]triazolo[4,3-a]pyrazin-7(8H)-yl)methyl)isoindolin-2-yl)piperidine-2,6-dione] | 6.30 to 7.00 | – | –
26 | O=C1CCC(N2Cc3c(CN4CCC(N(c5ccccc5)c5ccccn5)CC4)cccc3C2=S)C(=O)N1 (centres unmarked) [GT-08243, 3-(4-((4-(phenyl(pyridin-2-yl)amino)piperidin-1-yl)methyl)-1-thioxoisoindolin-2-yl)piperidine-2,6-dione] | – | 20 to 30 | 60 to 80
27 | O=C1CCC(N2Cc3c(CN4CCN(c5ncccc5C(F)(F)F)CC4)cccc3C2=S)C(=O)N1 (centres unmarked) [GT-08700, 3-(1-thioxo-4-((4-(3-(trifluoromethyl)pyridin-2-yl)piperazin-1-yl)methyl)isoindolin-2-yl)piperidine-2,6-dione] | – | 53 to 60 | 80 to 100
28 | O=C1CCC(N2Cc3cc(CN4CCC(N5CCOc6cc(F)ccc65)CC4)ccc3C2=S)C(=O)N1 (centres unmarked) [GT-09272, 3-(5-((4-(7-fluoro-2,3-dihydro-4H-benzo[b][1,4]oxazin-4-yl)piperidin-1-yl)methyl)-1-thioxoisoindolin-2-yl)piperidine-2,6-dione] | – | 60 to 80 | 80 to 100
